In patent US20070014736A1, “Methods of delivering corticotroph-derived glycoprotein hormone” (priority 2005, published 2007):
Blank lines part the entries; values can stand above or below the molecule they belong to.

Assays:
[1] = test system: differentiated 3T3 L1 adipocytes; assay: CRE-luciferase reporter assay in differentiated 3T3 L1 adipocytes; format: cell-based, murine
Text: (§1) Differentiated murine 3T3 L1 adipocytes and primary human adipocytes were used to study signal transduction of CGH. 3T3 L1 fibroblasts were differentiated into adipocytes and the cells were transduced with recombinant adenovirus containing a reporter construct, a firefly luciferase gene under the control of cAMP response element (CRE) enhancer sequences. This assay system detects cAMP-mediated gene induction downstream of activation of Gs-coupled G-protein coupled receptors (GPCR's). […] In a separate experiment, undifferentiated 3T3 L1 fibroblasts were transduced with the recombinant adenovirus. […] In another experiment, human primary adipocytes were also transduced with the recombinant adenovirus containing a reporter construct. Treatment of the human adipocytes with isoproterenol produced a 17-fold induction of luciferase expression.
(§2) Cells were cultured at 37° C. in an 8% CO2 humidified incubator. Cells were seeded to collagen-coated 96-well plates (Becton Dickinson, cat. #356407) at a density of 5,000 cells per well. […] Luciferase activity was measured on a microplate luminometer (PerkinElmer Life Sciences, Inc., model LB 96V2R) following automated injection of 40 μl of luciferase assay substrate into each well. […]

[2] = test system: human primary adipocytes; assay: CRE-luciferase reporter assay in human primary adipocytes; format: cell-based
Text: as §1, §2

[3] = test system: neutrophil infiltration in the ears; assay: Neutrophil (Gr-1) histomorphometry of ears in DTH experiment #1; format: in vivo, mice; conditions: 1.5 mg/kg Dex i.p. at challenge (day 7)
Protocol: Ears from mice in DTH experiment #1 were analyzed by immunohistochemistry to assess which cell types were most affected by CGH treatment. Ears were fixed in Zinc/Tris buffer (2.3 mM calcium acetate/31.6 mM zinc acetate/36.7 mM zinc chloride in 0.1M Tris-HCL buffer, pH 7.4) for 24 hours at room temperature and stained with antibodies specific for CD4, CD8, CD11c, and Gr-1 (neutrophils). […] Ears were stained using a TechMate 500 autoimmunostainer (Biotech/Ventana) MIP protocol with some modifications. […] This step was followed, after a wash, by biotinylated rabbit anti-rat IgG secondary antibody (Dako, used at 10 ug/ml in PBS with 2% normal rabbit serum and 2% nonfat dry milk) for 45 min. The sections were then washed and treated with HP Block (1.5% H2O2 in 50% methanol) 3 times, 7 min each, followed by 25 min in avidin-biotin complex, 3 times of 4 min each in DAB (Diaminobenzidine), then with Methyl green for 10 min.
From this staining procedure, there was a clear reduction in the number of neutrophils infiltrating the ears of those mice treated with CGH or Dex, compared to the PBS-treated controls. Histomorphometry was performed to obtain the average pixel density of neutrophils per unit length (1 mm) present in the ear samples. Despite a fair amount of variability among each group, there was a significant reduction in neutrophil staining in the Dex and low dose CGH groups, as well as a nearly significant (p=0.0507) reduction in the high dose CGH group (see TABLE 5, p values).

[4] = test system: LPS-induced mild endotoxemia mouse model; assay: LPS-induced mild endotoxemia mouse model, serum cytokines; format: in vivo, mice
Protocol: An in vivo experiment was designed to examine the effect of CGH in a mouse model of LPS-induced mild endotoxemia. This model mimics acute endotoxemia/sepsis by challenging mice with a low, non-lethal dose of bacterial endotoxin (lipopolysaccharide, LPS). Serum is collected at various timepoints (1-8 hours) after intraperitoneal LPS injection and analyzed for altered expression of a wide variety of pro- and anti-inflammatory cytokines and acute phase proteins that mediate the inflammatory response. The model provides a means to assess the potential anti-inflammatory effects of therapeutic candidates during a robust inflammatory response. To initially assess the model, we measured proinflammatory cytokines in a pilot experiment to collect reference data for the model.
C57B1/6 mice (Charles River Laboratories; 5 mice/group) were treated i.p. with PBS, 0.2 mg/kg CGH in PBS, or 2 mg/kg CGH in PBS 1 hour prior to LPS challenge. The mice were then challenged with 25 ug of LPS i.p. and bled at 1 hour and 4 hours after LPS injection. Serum was analyzed for TNF[…] (1 hour) and IL-6 (4 hours) levels by ELISA.
To determine if CGH would potentiate the effect of a sub-maximal dose of glucocorticoid, groups of 10 C57B1/6 mice each were treated i.p. with PBS, 0.15 or 1.5 mg/kg Dex, 2 mg/kg CGH, or a combination of CGH and low or high doses of Dex, 1 hour prior to injection of 25 ug LPS i.p. As shown in TABLE 3 (Expt #2), either 2 mg/kg CGH or 1.5 mg/kg Dex treatment alone (1 hour prior to LPS) caused a significant drop in serum TNFα levels at 1 hour, as observed in previous experiments. The effects of CGH administered in conjunction with Dex on inhibition of TNFα production were greater than either dose of Dex alone.

[5] = test system: adrenal glands; assay: Intraperitoneal recombinant CGH for two weeks, adrenal weight; format: in vivo, mice; conditions: 0.5 mg/kg Dex i.p. daily, day 15
Text: Summary: Mice were exposed to CGH through infection with adenovirus particles expressing GPHA2 and GPHB5, leading to overexpression and secretion of CGH from the liver of these animals. […] The hypertrophy was apparent in the inner cortical layers, the zona fasciculata and the zona reticularis. Similarly, mice were exposed to CGH through intraperitoneal injection of recombinant CGH protein alone, recombinant CGH protein along with the glucocorticoid Dexamethasone (Dex), Dex alone, or PBS alone daily for two weeks.
Sixteen C57BL/6 female mice at 8 weeks of age were separated into four groups. The first group received daily injections of 0.25 mg/kg of recombinant CGH protein intraperitoneally. The second group received daily injections of PBS using the same procedure. The third group received daily injections of 0.25 mg/kg of CGH plus 0.05 mg/kg Dex and the final group received 0.5 mg/kg Dex, alone. Animals were sacrificed on day 15 and the adrenal glands were isolated and weighed. Example 5 describes the expression and purification of recombinant CGH protein used in this experiment.

[6] = test system: Delayed Type Hypersensitivity (DTH) reaction; assay: Delayed Type Hypersensitivity (DTH), change in ear thickness; format: in vivo, mice
[7] = target: T1, thyroid-stimulating hormone receptor (TSHR) expressed on BHK cells (BHK-TSHR cells) (UniProt P16473 21-764, limits assumed); assay: radioligand saturation binding to BHK-TSHR cells, two-site non-linear regression, low-affinity site
T1 construct: whole, on cells; also called TSH receptor
Protocol: (§3) Binding reactions were terminated by removing the binding medium and the cell monolayers were washed three times with 1.0-2.0 ml of ice-cold PBS containing 1.0 mg/ml BSA and twice with 1.0-2.0 ml of ice cold albumin-free PBS. Cells were solubilized in 1.0 ml of 1.0N NaOH for 10 min at room temperature and cell-associated radioactivity was determined in a gamma counter. The measured radioactivity was normalized to cell number that was determined on plates of cells cultured in parallel. Binding data were analyzed by non-linear regression using Prizm 3.0 (GraphPad Software, San Diego, Calif.).

[8] = target: T1, thyroid-stimulating hormone receptor …; assay: radioligand saturation binding to BHK-TSHR cells, two-site non-linear regression, high-affinity site
Protocol: as §3

[9] = target: T2, human TSHR (Homo sapiens, UniProt P16473); assay: Bioactivity in BHK cells with CRE-luciferase reporter and human TSHR; format: cell-based; conditions: CRE-luciferase reporter
T2 construct: expressed in transfected cells; host or cells: BHK cells

[10] = test system: TSHR; assay: Binding of 125I-CGH and 125I-TSH to BHK cells expressing the TSHR; set-up: species or system murine or human
Protocol: as §3, with “BHK cells expressing murine or human TSHRs were cultured in Dulbecco's Modified Eagle's Medium [DMEM (high glucose)] containing 5% fetal bovine serum, 1% Glutamax, 1% sodium pyruvate, 250 nM methotrexate, and Geneticin ( 1/100). […] Plates of cells were placed on ice and washed twice with 1.0-2.0 ml of ice-cold PBS. […] Specific binding was determined in the presence (nonspecific binding) and absence (total binding) of unlabeled rhCGH (25.0 μg/ml) or TSH (10 μg/ml). Binding reactions” for “Binding reactions”

[11] = test system: parental BHK cells lacking the TSHR; assay: Binding of radioligands to parental BHK cells; conditions: data not shown
Protocol: as §3, with “BHK cells expressing murine or human TSHRs were cultured in Dulbecco's Modified Eagle's Medium [DMEM (high glucose)] containing 5% fetal bovine serum, 1% Glutamax, 1% sodium pyruvate, 250 nM methotrexate, and Geneticin ( 1/100). […] Plates of cells were placed on ice and washed twice with 1.0-2.0 ml of ice-cold PBS. […] Specific binding was determined in the presence (nonspecific binding) and absence (total binding) of unlabeled rhCGH (25.0 μg/ml) or TSH (10 μg/ml). Binding reactions” for “Binding reactions”

[12] = Expt 1, 1.5 mg/kg Dex i.p. at challenge (d7), 24 h
[13] = Expt 2, 1.5 mg/kg Dex i.p. at challenge (d7)
[14] = Expt 3, 1.5 mg/kg Dex i.p. at sensitization (d0-4)

Molecule: CC(C)NCC(O)c1ccc(O)c(O)c1 (centres unmarked) [isoproterenol, reference compound]
- induction of luciferase expression [1]: 80 fold
- induction of luciferase expression / reporter gene [2]: 17 fold

Molecule: C[C@@H]1C[C@H]2[C@@H]3CCC4=CC(=O)C=C[C@]4(C)[C@@]3(F)[C@@H](O)C[C@]2(C)[C@@]1(O)C(=O)CO [Dex, Dexamethasone, reference compound]
- Pixel density: Neutrophils, left ear (PBS) [3]: 749 +/− 686
- Pixel density: Neutrophils, right ear (OVA) [3]: 3651 +/− 2779
- IL-6, 4 hours ([4]; Expt 2, 0.15 mg/kg Dex): 37.1 ± 8.8 ng/mL
- TNFα, 1 hour ([4]; Expt 2, 0.15 mg/kg Dex): 1765 ± 589 pg/mL
- IL-6, 4 hours ([4]; Expt 2, 1.5 mg/kg Dex): 16.0 ± 4.9 ng/mL
- TNFα, 1 hour ([4]; Expt 2, 1.5 mg/kg Dex): 264 ± 138 pg/mL
- Average adrenal weight/100 g body weight [5]: 13.12 +/− 0.88
- Change in ear thickness, left ear (PBS) [6, 12]: 0.42 +/− 0.52 ×10^−3 inch
- Change in ear thickness, right ear (OVA) [6, 12]: 2.62 +/− 1.18 ×10^−3 inch
- Change in ear thickness, left ear (PBS) [6, 13]: 0.23 +/− 0.77 ×10^−3 inch
- Change in ear thickness, right ear (OVA) [6, 13]: 2.89 +/− 1.29 ×10^−3 inch
- Change in ear thickness, left ear (PBS) [6, 14]: 0.50 +/− 0.54 ×10^−3 inch
- Change in ear thickness, right ear (OVA) [6, 14]: 4.38 +/− 1.34 ×10^−3 inch

More lines, main results first:

- Kd [7]: 2700 µM
- Kd [8]: 0.00119 µM
B1: recombinant human Corticotroph-derived Glycoprotein Hormone (rhCGH), heterodimer of GPHA2 and GPHB5 (ligand)
chain 1: QEAVIPGCHLHPFNVTVRSDRQGTCQGSHVAQACVGHCESSAFPSRYSVLVASGYRHNITSVSQCCTISGLKKVKVQLQCVGSRREELEIFTARACQCDMCRLSRY
chain 2: ASSGNLRTFVGCAVREFTFLAKKPGCRGLRITTDACWGRCETWEKPILEPPYIEAHHRVCTYNETKQVTVKLPNCAPGVDPFYTYPVAIRCDCGACSTATTECETI
notes: correct NH2 termini reported; also called Thyrostimulin

- bioactivity compared to unlabeled counterpart [9]: no significant differences
B2: ^125I-CGH: rhCGH radiolabeled with 125I-Bolton Hunter Reagent (protein)
chain 1: B1 chain 1
chain 2: B1 chain 2
- high affinity sites per cell [10]: 86,000 sites per cell
- Hill slope ([10]; specific-binding data): 1.08
- Bmax, high-affinity site ([10]; two-site model): 139±74 fmol/10^6 cells
- Bmax, low-affinity site ([10]; two-site model): 1.6±1.4×10^6 fmol/10^6 cells
- binding to parental BHK cells lacking the TSHR [11]: Little or no binding
